Reference: patent publication US6521215B2, “Compositions and methods for tooth treatment” (priority 1999, dated 2003)
Values belong to the molecule of their own block, whether it stands above or below them.

Legend:
[1] = Attin et al., 1997, cited from earlier work
[2] = enamel exposed to 10% carbamide peroxide; McCracken and Haywood, 1996; cited from earlier work
[3] = scanning electron microscope, 5000× magnification
[4] = Protease enhanced tooth whitening, shade comparison of left and right halves of the enamel surface in vitro; parameters: species or system human; settings: protease slurry (papain in distilled water) alone vs untreated half of tooth
Experimental: In this experiment, specimens were prepared in vitro by dividing the enamel surface of the teeth into left and right halves with a visible light cured polymer. This allowed a shade comparison of one side to the other. Specimens were divided into two groups. In both groups, one side of the teeth received an application of protease. Protease slurry was prepared by mixing papain (papaya, crude, Type III) with distilled water and applied via a syringe tip applicator. One group of specimens was then immersed in 30% hydrogen peroxide solution. The other group received no further treatment. Thus, in the first group, one-half of the tooth was first treated with papain and then with hydrogen peroxide, and the second half of the tooth was treated with only hydrogen peroxide. In the other group, one-half of the tooth was treated with papain and the second half of the tooth was untreated.

Molecule: NC(N)=O.OO [carbamide peroxide]
enamel microhardness ([1]; 10% carbamide peroxide (Opalescence®)): significantly decreased | amount of calcium lost from enamel (average) [2]: 1.06 micrograms/mm^2

Molecule: F [fluoride]
hardness of bleached enamel specimens after application ([1]; high concentration fluoride application): restore hardness

microscopic pitting of the enamel surface [3]: not seen
Molecule: OO [hydrogen peroxide]

B1: papain (protein, UniProt P00784 134-345, looked up)
Papain: IPEYVDWRQKGAVTPVKNQGSCGSCWAFSAVVTIEGIIKIRTGNLNEYSEQELLDCDRRSYGCNGGYPWSALQLVAQYGIHYRNTYPYEGVQRYCRSREKGPYAAKTDGVRQVQPYNEGALLYSIANQPVSVVLEAAGKDFQLYRGGIFVGPCGNKVDHAVAAVGYGPNYILIKNSWGTGWGENGYIRIKRGTGNSYGVCGLYTSSFYPVKN
modifications: crude preparation
notes: Protease slurry prepared by mixing papain (papaya, crude, Type III) with distilled water
whitening effect (change in shade) of treated tooth side [4]: will remove stains and “whiten” a tooth
